# From article PMC3898987 (Bioorganic & Medicinal Chemistry, 2013)
# Substitutions are numbered along the chain they refer to. Values joined by “and” are separate entries in the source; they are usually repeats but may differ in a detail not shown here. Identical values can stand only once.
# Experiments:
# Experiment in all cases: FlexStation membrane potential dye functional assay, HEK293 cells
# Type in all cases: cell-based
# Parameters in all cases: expressed in transfected cells; host or cells: HEK293
# WT 5-HT3A receptor = target: T1, WT 5-HT3A receptor (Homo sapiens, UniProt P46098)
# T1 sequence (P46098 24-478): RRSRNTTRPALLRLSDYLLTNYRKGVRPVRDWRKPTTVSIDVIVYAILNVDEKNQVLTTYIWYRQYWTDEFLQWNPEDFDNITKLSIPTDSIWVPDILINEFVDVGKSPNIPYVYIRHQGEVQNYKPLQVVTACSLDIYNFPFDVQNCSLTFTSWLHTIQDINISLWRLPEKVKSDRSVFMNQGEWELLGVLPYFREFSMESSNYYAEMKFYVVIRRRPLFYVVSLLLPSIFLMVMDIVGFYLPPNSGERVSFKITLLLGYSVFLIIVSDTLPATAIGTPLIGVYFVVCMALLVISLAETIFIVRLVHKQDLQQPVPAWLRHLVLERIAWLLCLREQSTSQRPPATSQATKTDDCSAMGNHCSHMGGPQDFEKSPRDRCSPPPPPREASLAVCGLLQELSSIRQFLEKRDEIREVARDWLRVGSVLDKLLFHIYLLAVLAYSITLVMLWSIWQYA
# Description: (§1) Human embryonic kidney (HEK) 293 cells were cultured on 90 mm tissue culture plates at 37 °C and 7% CO2 in a humidified atmosphere. They were grown in DMEM:F12 (Dulbecco’s Modified Eagle’s Medium/Nutrient Mix F12 (1:1)) with GlutaMAX I™ containing 10% fetal calf serum and passaged when confluent. […] For FlexStation assays, transfected cells were plated on 96-well plates and incubated 1–2 days before assay.
# (§2) Fluorometric studies were undertaken using a FlexStation® (Molecular Devices, Sunnyvale, CA, USA) as previously described.[11]
# (§3) Fluorescence was measured every 2 s for 200 s. […] Concentration–response and inhibition curves were obtained for each mutant, and the fluorescence values were normalized to the maximal response.
# WT 5-HT3AB receptor = target: T2, WT 5-HT3AB receptor (Homo sapiens, UniProt O95264+P46098)
# T2 sequence (P46098 24-478): T1 sequence (P46098 24-478)
# T2 sequence (O95264 22-441): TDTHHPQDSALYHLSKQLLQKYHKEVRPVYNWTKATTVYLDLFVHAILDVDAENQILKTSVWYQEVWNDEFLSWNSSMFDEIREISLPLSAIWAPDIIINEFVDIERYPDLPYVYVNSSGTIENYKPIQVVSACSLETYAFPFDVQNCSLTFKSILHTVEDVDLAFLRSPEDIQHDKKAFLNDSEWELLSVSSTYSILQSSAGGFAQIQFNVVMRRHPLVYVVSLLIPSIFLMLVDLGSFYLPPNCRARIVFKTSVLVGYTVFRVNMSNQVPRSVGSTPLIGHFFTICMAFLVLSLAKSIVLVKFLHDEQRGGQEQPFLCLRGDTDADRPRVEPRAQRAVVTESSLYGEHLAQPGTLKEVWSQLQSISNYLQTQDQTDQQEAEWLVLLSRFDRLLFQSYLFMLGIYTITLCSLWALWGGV
# Description: as §1, §2, §3
# 5-HT3A receptor Y73F = target: T3, 5-HT3A receptor Y73F (Homo sapiens, UniProt P46098, Y68F); conditions: 5-HT3A Y73F
# T3 sequence (P46098 24-478 Y68F): T1 sequence (P46098 24-478) with Y45F
# Description: as §1, §2, §3
# 5-HT3A receptor D165K = target: T4, 5-HT3A receptor D165K (Homo sapiens, UniProt P46098, D160K); conditions: 5-HT3A D165K
# T4 sequence (P46098 24-478 D160K): T1 sequence (P46098 24-478) with D137K
# Description: as §1, §2, §3
# 5-HT3A receptor S163A = target: T5, 5-HT3A receptor S163A (Homo sapiens, UniProt P46098, S158A); conditions: 5-HT3A S163A
# T5 sequence (P46098 24-478 S158A): T1 sequence (P46098 24-478) with S135A
# Description: as §1, §2, §3
# [1] = inhibition of 5-HT (EC50 concentration) response, 45 min preincubation
Compound,IC50 (WT 5-HT3A receptor; [1]),IC50 (WT 5-HT3AB receptor; [1]),IC50 (5-HT3A receptor Y73F; [1]),IC50 (5-HT3A receptor D165K; [1]),IC50 (5-HT3A receptor S163A; [1]),Hill Coefficient (WT 5-HT3A receptor; 5-HT concentration-response),Hill Coefficient (WT 5-HT3AB receptor; 5-HT concentration-response),Hill Coefficient (5-HT3A receptor Y73F; 5-HT concentration-response),Hill Coefficient (5-HT3A receptor D165K; 5-HT concentration-response),Hill Coefficient (5-HT3A receptor S163A; 5-HT concentration-response)
O=C1c2cccc3c2[C@H](CCC3)CN1[C@@H]1CN2CCC1CC2 [Palonosetron],0.83 ± 0.49 nM,0.88 ± 0.15 nM,1.23 ± 0.15 nM,1.3 ± 0.43 nM,1.57 ± 0.12 nM,–,–,–,–,–
"NCCc1c[nH]c2ccc(O)cc12 [5-HT, serotonin]",–,–,–,–,–,2.3 and 2.3 ± 0.2,1.3 and 1.3 ± 0.2,2.3 ± 0.3,3.0 ± 0.3,3.8 ± 0.4
